Experimental data taken from patent publication US10287530B2, “Surfactants based on monounsaturated fatty alcohol derivatives” (priority 2013, dated 2019).
Where two headings read alike, the source gives them in different places.

Legend:
[1] = Appearance and solubility of surfactants and of 1:1 molar blends with cationic surfactant; assay type: physicochemical; conditions: for Appearance, 1.0%: 1:1 molar blend of the anionic with Ammonyx Cetac 30, 1.0% actives
Protocol: (§1) The surfactant blends tested are prepared at a 1:1 molar ratio without any pH adjustment. Dilutions are made using deionized water to the desired actives level. Actives amounts are wt. % unless indicated otherwise. Appearances are reported at ambient temperature for samples prepared within the last 24 h.

[2] = Interfacial tension (IFT) against light mineral oil, synergy study with cationic surfactant; assay type: physicochemical; conditions: for IFT at 0.1% actives/mineral oil (blend): 1:1 molar blend of the anionic with Ammonyx Cetac 30, 0.1% actives, light mineral oil; for Calculated IFT (no synergy): expected IFT of the 1:1 molar blend with Ammonyx Cetac 30 by ideal mixing; for Synergy?: measured versus expected IFT of the 1:1 molar blend with Ammonyx Cetac 30; for IFT at 0.1% actives (single component): 0.1 wt. % active against light mineral oil, ambient temperature
Protocol: as §1
Interfacial tension (IFT) of all the individual components and their blends is measured at 0.1 wt. % active against light mineral oil at ambient temperature using a Kruss DSA-20 pendent drop tensiometer. The drop is blown out at 600 μL/min., and a video is recorded for 100 s. The video frames taken during the last 15 s are analyzed and used for the IFT calculation.
For blends having an IFT less than 0.5 mN/m, the IFT is determined using a spinning drop tensiometer (University of Texas 500) at 25° C. Oil density=0.877 g/cm^3 and surfactant density=0.997 g/cm^3 are used for the IFT calculation.
The expected IFT for a blend is calculated based on ideal mixing (non-synergistic) using the active component in each blend. The equation used is given as: Expected IFT=X*IFTa+(1−X)*IFTb where X is the actives % of component A, IFTa is the IFT of component A, and IFTb is the IFT of component B. If the measured IFT for a blend is less than the expected IFT, then the blend is synergistic. If the measured IFT for a blend is higher than the expected IFT, the system is antagonistic.

[3] = test system: zein, yellow corn (maize) protein
Protocol: The zein test is based on solubilization by surfactants of a yellow corn (maize) protein that is normally insoluble in water unless it is denatured. The test gravimetrically determines the amount of zein dissolved by a surfactant solution. The solubility of zein in surfactant solutions correlates well with skin irritation or roughness caused by the surfactant. […] A higher zein number corresponds to a greater degree of irritation.
A 1% actives solution of each test surfactant (120 mL) is prepared. The pH of each solution is adjusted to about 7.0 with dilute aq. sulfuric acid or dilute aq. sodium hydroxide. The surfactant solution is warmed to 45° C. Zein powder (1.50 g) is added to each of three jars. Surfactant (25.0 g of 1% actives solution) is added to each jar, and to one empty jar to be used as a blank. The solutions are mixed using magnetic stirring on a temperature-controlled hotplate at 45° C. for 60 min. Each mixture is then centrifuged (2500 rpm, 15 min.), and undissolved zein powder is isolated by vacuum filtration. The residue is washed with deionized water and dried (55° C., 24 h) to constant weight. The amount of undissolved zein protein is found gravimetrically, and the results from three runs are averaged to give the % of solubilized zein and zein number.

[4] = Agricultural dispersant screening: sedimentation of milled pesticide powder; assay type: physicochemical; set-up: key to Sedimentation results at 1 h: Trace of sediment=“Tr”; conditions: for Rating: overall, versus DF-200 and DF-500 controls
Protocol: The potential of a composition for use as an agricultural dispersant is evaluated by its performance with five typical pesticide active ingredients: atrazine, chlorothalonil, diuron, imidacloprid and tebuconazole. The performance of each dispersant sample is evaluated in comparison with two standard Stepsperse® dispersants: DF-200 and DF-500 (products of Stepan Company).
A screening sample is prepared as shown below for each active. Wetting agents, clays, and various additives are included or excluded from the screening process as needed. The weight percent of pesticide (“technical material”) in the formulation depends on the desired active level of the final product. The active level chosen is similar to other products on the market. If this is a new active ingredient, then the highest active level is used.
Samples are evaluated in waters of varying hardness, in this case 342 ppm and 1000 ppm. The initial evaluations are performed at ambient temperature. Other temperatures can be evaluated as desired. The 342 ppm water is made by dissolving anhydrous calcium chloride (0.304 g) and magnesium chloride hexahydrate (0.139 g) in deionized water and diluting to 1 L. The 1000 ppm water is made similarly using 0.89 g of calcium chloride and 0.40 g of magnesium chloride hexahydrate.
Technical material (60-92.5 wt. %), anionic wetting agent (0.5-1.0 wt. %), silica (0.5-1.0 wt. %), and clay (balance) are blended in a suitable container. The blend is milled to a particle size of at least a d(90) of <20μ using a hammer and air/jet mills as needed. Test dispersant (0.1 g) is added to test water (50 mL) in a beaker and stirred 1-2 min. Milled powder containing the technical material (1.0 g) is added to the dispersant solution and stirred until all powder is wet (2-5 min.). The mixture is transferred to a 100-mL cylinder using additional test water for rinsing the beaker and is then diluted to volume. The cylinder is stoppered and inverted ten times, then allowed to stand. Visual inspection is performed at t=0.5, 1.0, 2.0, and 24 hours, and the amount of sediment observed (in mL) is recorded. Trace of sediment=“Tr” (see Table 5).

[5] = Surfactant phase behavior study by cross-polarized microscopy; assay type: physicochemical; conditions: in deionized water, room temperature (20-22° C.); boundaries are estimates (±5%)
Protocol: Phase behavior is observed using an Olympus BH-2 cross-polarized microscope at 100-400× and room temperature (20° C. to 22° C.). The monounsaturated C11 alcohol derivatives (sulfates, ethoxylate sulfates, and alcohol ethoxylates) are compared with their saturated analogs. Samples are prepared by diluting the most concentrated product gradually with deionized water. When the surfactant concentration approaches a phase transition, the concentration is varied at 2-4% intervals to estimate the phase boundary. The actives level reported in Table 6 for each phase boundary is within ±5% of the true boundary. Samples are loaded between a microscope slide and cover glass and are allowed to equilibrate before observation. Microscopic texture is analyzed and used to determine the phase. For some samples, an AR 2000 rheometer (TA Instruments) is used to measure viscosity at 25° C. to further verify phase behavior.

[6] = Chlorothalonil, test water 342 ppm
[7] = Chlorothalonil, test water 1000 ppm
[8] = Imidacloprid, test water 342 ppm
[9] = Imidacloprid, test water 1000 ppm
[10] = Tebuconazole, test water 342 ppm
[11] = Tebuconazole, test water 1000 ppm

Substance | Solubility [1] | Appearance, 1.0% ([1]; ambient temperature) | IFT at 0.1% actives/mineral oil (blend) [2] [mN/m] | Calculated IFT (no synergy) [2] [mN/m] | Synergy? [2] | IFT at 0.1% actives (single component) [2] [mN/m] | Sedimentation results at 1 h ([4]; Atrazine, test water 342 ppm) | Sedimentation results at 24 h ([4]; Atrazine, test water 342 ppm) [mL] | Sedimentation results at 1 h ([4]; Atrazine, test water 1000 ppm) [mL] | Sedimentation results at 24 h ([4]; Atrazine, test water 1000 ppm) [mL] | Sedimentation results at 1 h [4, 6] | Sedimentation results at 24 h [4, 6] [mL] | Sedimentation results at 1 h [4, 7] [mL] | Sedimentation results at 24 h [4, 7] [mL] | Sedimentation results at 1 h ([4]; Diuron, test water 342 ppm) [mL] | Sedimentation results at 24 h ([4]; Diuron, test water 342 ppm) [mL] | Sedimentation results at 1 h ([4]; Diuron, test water 1000 ppm) [mL] | Sedimentation results at 24 h ([4]; Diuron, test water 1000 ppm) [mL] | Sedimentation results at 1 h [4, 8] [mL] | Sedimentation results at 24 h [4, 8] [mL] | further results
Undecylenic Alcohol, 1EO Ether Sulfate, Sodium Salt [Unsat. C11 alcohol 1EO Na sulfate] | good | separated | 0.13 | 3.27 | very high | 6.18 | Tr | 1 | 0.5 | 1 | Tr | 1 | 0.5 | 1 | 0.5 | 1 | 1 | 2 | 3 | 4 | % solubilized zein ([3]; 1% actives solution, pH about 7.0, 45° C., 60 min, average of three runs): 8.3%; zein number ([3]; relative to 1% actives Stepanol WA-Extra PCK (SLS) control = 100, higher = more irritating, average of three runs): 16.7; Sedimentation results at 1 h [4, 9]: 3, 3 mL; Sedimentation results at 24 h [4, 9]: 3, 3 mL; Sedimentation results at 1 h [4, 10]: Tr; Sedimentation results at 24 h [4, 10]: 2 mL; Sedimentation observation (flock) [4, 11]: flocked; Rating [4]: equal; Estimated Phase Region as a Function of % Actives Level: Isotropic Clear [5]: 0-64 % actives; Estimated Phase Region as a Function of % Actives Level: Solid/gum/paste [5]: 74-100 % actives; Estimated Phase Region as a Function of % Actives Level: Solid/isotropic [5]: 64-74 % actives
1-Undecanol, 1EO Ether Sulfate, Sodium Salt [Sat. C11 alcohol 1EO Na sulfate] | fair-poor | separated | 0.23 | 6.44 | very high | 12.52 | Tr | 1 | 0.5 | 1 | 0.5 mL | 1 | 0.5 | 2 | 0.5 | 1 | 1 | 2 | 1 | 2 | Appearance, 0.1% ([1]; 1:1 molar blend of the anionic with Ammonyx Cetac 30, 0.1% actives, ambient temperature): hazy liquid; % solubilized zein [3]: 33.7%; zein number [3]: 68.0; Sedimentation results at 1 h [4, 9]: 2.5 mL; Sedimentation results at 24 h [4, 9]: 2 mL; Sedimentation results at 1 h [4, 10]: Tr; Sedimentation results at 24 h [4, 10]: 0.5 mL; Sedimentation results at 1 h [4, 11]: 5 mL; Sedimentation results at 24 h [4, 11]: 3 mL; Rating [4]: equal; Estimated Phase Region as a Function of % Actives Level: Hexagonal [5]: 36-58 % actives; Estimated Phase Region as a Function of % Actives Level: Isotropic Clear [5]: 0-36 % actives; Estimated Phase Region as a Function of % Actives Level: Lamellar [5]: 58-72 % actives; Estimated Phase Region as a Function of % Actives Level: Solid/gum/paste [5]: 72-100 % actives
